# Test results: PubChem BioAssay (NCI)
#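 Grown in 96-well plates, cells were treated for 48 hours with each compound at five concentrations. Insufficient inhibition: endpoint recorded as highest concentration tested. TGI is the concentration that stops growth completely.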 Where a SMILES comes first, the peptide text is derived from it. [ ]: non-standard residue; d: D form. The star is where a group is joined. Octanoyl = CCCCCCCC(=O)*; Aib = CC(C)(N)C(=O)O; tBu = CC(C)(C)*
# What was measured:
# Test in all cases: DTP human tumour cell line panel, 48 h
# HOP-62 NSCLC = tested on: HOP-62 NSCLC
# TK-10 renal = tested on: TK-10 renal
# UACC-62 melanoma = tested on: UACC-62 melanoma
# OVCAR-4 ovarian = tested on: OVCAR-4 ovarian
# OVCAR-3 ovarian = tested on: OVCAR-3 ovarian
# EKVX NSCLC = tested on: EKVX NSCLC
# NCI/ADR-RES ovarian = tested on: NCI/ADR-RES ovarian
# SW-620 colon = tested on: SW-620 colon
# COLO 205 colon = tested on: COLO 205 colon
# NCI-H23 lung = tested on: NCI-H23 lung
# K-562 leukemia = tested on: K-562 leukemia
# HT29 colon = tested on: HT29 colon
# OVCAR-8 ovarian = tested on: OVCAR-8 ovarian
# SK-MEL-5 melanoma = tested on: SK-MEL-5 melanoma
# HL-60(TB) leukemia = tested on: HL-60(TB) leukemia
# SK-MEL-28 melanoma = tested on: SK-MEL-28 melanoma
# MOLT-4 leukemia = tested on: MOLT-4 leukemia
# SK-OV-3 ovarian = tested on: SK-OV-3 ovarian
# MDA-MB-435 = tested on: MDA-MB-435
# SK-MEL-2 melanoma = tested on: SK-MEL-2 melanoma
# HCT-116 colon = tested on: HCT-116 colon
# U251 CNS = tested on: U251 CNS
# CCRF-CEM leukemia = tested on: CCRF-CEM leukemia
# HOP-92 NSCLC = tested on: HOP-92 NSCLC
# UO-31 renal = tested on: UO-31 renal
# DU-145 prostate = tested on: DU-145 prostate
# ACHN renal = tested on: ACHN renal
# HCT-15 colon = tested on: HCT-15 colon
# MDA-N = tested on: MDA-N
# BT-549 breast = tested on: BT-549 breast
# SNB-19 CNS = tested on: SNB-19 CNS
# SNB-75 CNS = tested on: SNB-75 CNS
# SF-295 CNS = tested on: SF-295 CNS
# A498 renal = tested on: A498 renal
# T-47D breast = tested on: T-47D breast
# MCF7 breast = tested on: MCF7 breast
# CAKI-1 renal = tested on: CAKI-1 renal
# OVCAR-5 ovarian = tested on: OVCAR-5 ovarian
# NCI-H460 lung = tested on: NCI-H460 lung
# 786-0 renal = tested on: 786-0 renal
# A549 NSCLC = tested on: A549 NSCLC
# SF-539 CNS = tested on: SF-539 CNS
# SN12C renal = tested on: SN12C renal
# IGROV1 ovarian = tested on: IGROV1 ovarian
# LOX IMVI melanoma = tested on: LOX IMVI melanoma
# RXF 393 renal = tested on: RXF 393 renal
# UACC-257 melanoma = tested on: UACC-257 melanoma
# SR leukemia = tested on: SR leukemia
# RPMI-8226 leukemia = tested on: RPMI-8226 leukemia
# PC-3 prostate = tested on: PC-3 prostate
# NCI-H522 lung = tested on: NCI-H522 lung
# KM12 colon = tested on: KM12 colon
# HS 578T breast = tested on: HS 578T breast
# SF-268 CNS = tested on: SF-268 CNS
# NCI-H226 lung = tested on: NCI-H226 lung
# MDA-MB-231 breast = tested on: MDA-MB-231 breast
# M14 melanoma = tested on: M14 melanoma
# HCC-2998 colon = tested on: HCC-2998 colon
smiles,measurement,setting,value
CCCCCCCC(=O)NC(C)(C)C(=O)NC(COC(C)(C)C)C(=O)NC(CC(C)C)C(=O)NC(C)(C)C(=O)NC(COC(C)(C)C)C(=O)NC(COC(C)(C)C)C(=O)NC(CC(C)C)C(=O)NC(C)(C)C(=O)NC(COC(C)(C)C)C(=O)NC(C(=O)NC(CC(C)C)C(=O)OC)C(C)CC (stereo not given) (Octanoyl-[Aib]S(tBu)L[Aib]S(tBu)S(tBu)L[Aib]S(tBu)IL-OMe; configuration not given here),TGI,HOP-62 NSCLC,> 25 µM
same,TGI,TK-10 renal,21.8 µM
same,TGI,UACC-62 melanoma,23.7 µM
same,TGI,OVCAR-4 ovarian,> 25 µM
same,TGI,OVCAR-3 ovarian,10.9 µM
same,TGI,EKVX NSCLC,16.3 µM
same,TGI,NCI/ADR-RES ovarian,> 25 µM
same,TGI,SW-620 colon,> 25 µM
same,TGI,COLO 205 colon,15.8 µM
same,TGI,NCI-H23 lung,12.7 µM
same,TGI,K-562 leukemia,> 25 µM
same,TGI,HT29 colon,11.9 µM
same,TGI,OVCAR-8 ovarian,> 25 µM
same,TGI,SK-MEL-5 melanoma,16.2 µM
same,TGI,HL-60(TB) leukemia,15.6 µM
same,TGI,SK-MEL-28 melanoma,> 25 µM
same,TGI,MOLT-4 leukemia,> 25 µM
same,TGI,SK-OV-3 ovarian,> 25 µM
same,TGI,MDA-MB-435,> 25 µM
same,TGI,SK-MEL-2 melanoma,13.5 µM
same,TGI,HCT-116 colon,> 25 µM
same,TGI,U251 CNS,12.8 µM
same,TGI,CCRF-CEM leukemia,11.9 µM
same,TGI,HOP-92 NSCLC,10.6 µM
same,TGI,UO-31 renal,> 25 µM
same,TGI,DU-145 prostate,> 25 µM
same,TGI,ACHN renal,20.8 µM
same,TGI,HCT-15 colon,> 25 µM
same,TGI,MDA-N,> 25 µM
same,TGI,BT-549 breast,13.1 µM
same,TGI,SNB-19 CNS,> 25 µM
same,TGI,SNB-75 CNS,16.4 µM
same,TGI,SF-295 CNS,> 25 µM
same,TGI,A498 renal,14 µM
same,TGI,T-47D breast,23.5 µM
same,TGI,MCF7 breast,17 µM
same,TGI,CAKI-1 renal,> 25 µM
same,TGI,OVCAR-5 ovarian,22.3 µM
same,TGI,NCI-H460 lung,13.8 µM
same,TGI,786-0 renal,23.4 µM
same,TGI,A549 NSCLC,> 25 µM
same,TGI,SF-539 CNS,> 25 µM
same,TGI,SN12C renal,24.9 µM
same,TGI,IGROV1 ovarian,12.5 µM
same,TGI,LOX IMVI melanoma,10.6 µM
same,TGI,RXF 393 renal,9.99 µM
same,TGI,UACC-257 melanoma,> 25 µM
same,TGI,SR leukemia,17.9 µM
same,TGI,RPMI-8226 leukemia,11.2 µM
same,TGI,PC-3 prostate,9.36 µM
same,TGI,NCI-H522 lung,> 25 µM
same,TGI,KM12 colon,22 µM
same,TGI,HS 578T breast,> 25 µM
same,TGI,SF-268 CNS,> 25 µM
same,TGI,NCI-H226 lung,21.1 µM
same,TGI,MDA-MB-231 breast,15.9 µM
same,TGI,M14 melanoma,> 25 µM
Cc1c2c(n(Cc3ccccn3)c1C)NN=C(C#N)S2(=O)=O,TGI,HOP-62 NSCLC,> 100 µM
same,TGI,TK-10 renal,> 100 µM
same,TGI,UACC-62 melanoma,> 100 µM
same,TGI,OVCAR-4 ovarian,> 100 µM
same,TGI,OVCAR-3 ovarian,> 100 µM
same,TGI,EKVX NSCLC,> 100 µM
same,TGI,NCI/ADR-RES ovarian,> 100 µM
same,TGI,SW-620 colon,> 100 µM
same,TGI,COLO 205 colon,> 100 µM
same,TGI,NCI-H23 lung,> 100 µM
same,TGI,HT29 colon,> 100 µM
same,TGI,OVCAR-8 ovarian,> 100 µM
same,TGI,SK-MEL-5 melanoma,> 100 µM
same,TGI,SK-MEL-28 melanoma,> 100 µM
same,TGI,MOLT-4 leukemia,> 100 µM
same,TGI,SK-OV-3 ovarian,> 100 µM
same,TGI,MDA-MB-435,> 100 µM
same,TGI,SK-MEL-2 melanoma,> 100 µM
same,TGI,HCT-116 colon,> 100 µM
same,TGI,U251 CNS,> 100 µM
same,TGI,HOP-92 NSCLC,> 100 µM
same,TGI,UO-31 renal,> 100 µM
same,TGI,DU-145 prostate,> 100 µM
same,TGI,ACHN renal,> 100 µM
same,TGI,HCT-15 colon,> 100 µM
same,TGI,MDA-N,> 100 µM
same,TGI,BT-549 breast,> 100 µM
same,TGI,SNB-19 CNS,> 100 µM
same,TGI,SNB-75 CNS,> 100 µM
same,TGI,SF-295 CNS,> 100 µM
same,TGI,A498 renal,> 100 µM
same,TGI,T-47D breast,> 100 µM
same,TGI,MCF7 breast,> 100 µM
same,TGI,CAKI-1 renal,> 100 µM
same,TGI,OVCAR-5 ovarian,> 100 µM
same,TGI,NCI-H460 lung,> 100 µM
same,TGI,786-0 renal,> 100 µM
same,TGI,A549 NSCLC,> 100 µM
same,TGI,SF-539 CNS,> 100 µM
same,TGI,SN12C renal,> 100 µM
same,TGI,IGROV1 ovarian,> 100 µM
same,TGI,LOX IMVI melanoma,> 100 µM
same,TGI,UACC-257 melanoma,> 100 µM
same,TGI,SR leukemia,> 100 µM
same,TGI,PC-3 prostate,> 100 µM
same,TGI,NCI-H522 lung,> 100 µM
same,TGI,KM12 colon,> 100 µM
same,TGI,HS 578T breast,> 100 µM
same,TGI,SF-268 CNS,> 100 µM
same,TGI,NCI-H226 lung,> 100 µM
same,TGI,MDA-MB-231 breast,> 100 µM
same,TGI,M14 melanoma,> 100 µM
same,TGI,HCC-2998 colon,> 100 µM
